Article PMC8592419 (PLoS ONE, 2021)
Values after ≈ are worked out from the molar mass of the structure shown. Like-named read-outs stand apart in the source and are kept apart here. Each block holds one compound with its values, some of them ahead of it. Where a SMILES comes first, the peptide text is derived from it.

What was measured:
[1] = tested on: M. abscessus clinical isolate MAB16; experiment: In vitro susceptibility testing (DST), CLSI broth microdilution; format: cell-based, M. abscessus subsp. massiliense; set-up: key to DST profile, interpretation, Day 3 / DST profile, interpretation, Day 5 / DST profile, interpretation, Day 14: S, susceptible; I, intermediate; R, resistant; conditions: for MIC: Mycobacteroides abscessus
Experimental: (§1) Drug susceptibility testing (DST) was performed according to the Clinical and Laboratory Standards Institute (CLSI) guidelines M24-A2 [42] using the broth microdilution method to determine the minimum inhibitory concentration (MIC). […] Colonies were grown at an adjusted cell density to a 0.5 McFarland standard and further diluted to 5×10^5 CFU/ml. […] These were then incubated at 37°C for 3, 5 and 14 days. The MIC was defined as the concentration in which no visible growth was observed. The results were interpreted according to the guidelines of CLSI. Inducible resistance was inferred by changes in MIC values from being susceptible at day 3 to resistant at day 14.

[2] = tested on: M. abscessus clinical isolate MAB12; experiment: as above; format: cell-based, M. abscessus subsp. massiliense; set-up: key to DST profile, interpretation, Day 3 / DST profile, interpretation, Day 5 / DST profile, interpretation, Day 14: S, susceptible; I, intermediate; R, resistant; conditions: for MIC: Mycobacteroides abscessus
Experimental: as §1

[3] = tested on: M. abscessus clinical isolate MAB02; experiment: as above; format: cell-based, M. abscessus subsp. abscessus; set-up: key to DST profile, interpretation, Day 3 / DST profile, interpretation, Day 5 / DST profile, interpretation, Day 14: S, susceptible; I, intermediate; R, resistant; conditions: for MIC: Mycobacteroides abscessus
Experimental: as §1

[4] = tested on: M. abscessus clinical isolate MAB03; experiment: as above; format: cell-based, M. abscessus subsp. abscessus; set-up: key to DST profile, interpretation, Day 3 / DST profile, interpretation, Day 5 / DST profile, interpretation, Day 14: S, susceptible; I, intermediate; R, resistant; conditions: for MIC: Mycobacteroides abscessus
Experimental: as §1

[5] = tested on: M. abscessus clinical isolate MAB04; experiment: as above; format: cell-based, M. abscessus subsp. abscessus; set-up: key to DST profile, interpretation, Day 3 / DST profile, interpretation, Day 5 / DST profile, interpretation, Day 14: S, susceptible; I, intermediate; R, resistant; conditions: for MIC: Mycobacteroides abscessus
Experimental: as §1

[6] = tested on: M. abscessus clinical isolate MAB01; experiment: as above; format: cell-based, M. abscessus subsp. abscessus; set-up: key to DST profile, interpretation, Day 3 / DST profile, interpretation, Day 5 / DST profile, interpretation, Day 14: S, susceptible; I, intermediate; R, resistant; conditions: for MIC: Mycobacteroides abscessus
Experimental: as §1

[7] = tested on: M. abscessus clinical isolate MAB11; experiment: as above; format: cell-based, M. abscessus subsp. abscessus; set-up: key to DST profile, interpretation, Day 3 / DST profile, interpretation, Day 5 / DST profile, interpretation, Day 14: S, susceptible; I, intermediate; R, resistant; conditions: for MIC: Mycobacteroides abscessus
Experimental: as §1

[8] = tested on: M. abscessus clinical isolate MAB08; experiment: as above; format: cell-based, M. abscessus subsp. abscessus; set-up: key to DST profile, interpretation, Day 3 / DST profile, interpretation, Day 5 / DST profile, interpretation, Day 14: S, susceptible; I, intermediate; R, resistant; conditions: for MIC: Mycobacteroides abscessus
Experimental: as §1

[9] = tested on: M. abscessus clinical isolate MAB05; experiment: as above; format: cell-based, M. abscessus subsp. abscessus; set-up: key to DST profile, interpretation, Day 3 / DST profile, interpretation, Day 5 / DST profile, interpretation, Day 14: S, susceptible; I, intermediate; R, resistant; conditions: for MIC: Mycobacteroides abscessus
Experimental: as §1

[10] = tested on: M. abscessus clinical isolate MAB06; experiment: as above; format: cell-based, M. abscessus subsp. abscessus; set-up: key to DST profile, interpretation, Day 3 / DST profile, interpretation, Day 5 / DST profile, interpretation, Day 14: S, susceptible; I, intermediate; R, resistant; conditions: for MIC: Mycobacteroides abscessus
Experimental: as §1

[11] = tested on: M. abscessus clinical isolate MAB10; experiment: as above; format: cell-based, M. abscessus subsp. abscessus; set-up: key to DST profile, interpretation, Day 3 / DST profile, interpretation, Day 5 / DST profile, interpretation, Day 14: S, susceptible; I, intermediate; R, resistant; conditions: for MIC: Mycobacteroides abscessus
Experimental: as §1

[12] = 72 h, day 3, read-out: DST profile, MIC value, Day 3
[13] = 120 h, day 5, read-out: DST profile, MIC value, Day 5
[14] = 336 h, day 14, read-out: DST profile, MIC value, Day 14

- MIC [1, 12]: 0.2 mg/L (≈ 0.267 µM)
- MIC [1, 13]: 2 mg/L (≈ 2.67 µM)
- MIC [1, 14]: 2 mg/L (≈ 2.67 µM)
- MIC [2, 12]: 1020 mg/L (≈ 1370 µM)
- MIC [2, 13]: 1020 mg/L (≈ 1370 µM)
- MIC [2, 14]: 1020 mg/L (≈ 1370 µM)
- MIC [3, 12]: 1 mg/L (≈ 1.34 µM)
- MIC [3, 13]: 8 mg/L (≈ 10.7 µM)
- MIC [3, 14]: 64 mg/L (≈ 85.6 µM)
- MIC [4, 12]: 8 mg/L (≈ 10.7 µM)
- MIC [4, 13]: 8 mg/L (≈ 10.7 µM)
- MIC [4, 14]: 8 mg/L (≈ 10.7 µM)
- MIC [5, 12]: 2 mg/L (≈ 2.67 µM)
- MIC [5, 13]: 16 mg/L (≈ 21.4 µM)
- MIC [5, 14]: 64 mg/L (≈ 85.6 µM)
- MIC [6, 12]: 1020 mg/L (≈ 1370 µM)
- MIC [6, 13]: 1020 mg/L (≈ 1370 µM)
- MIC [6, 14]: 1020 mg/L (≈ 1370 µM)
- MIC [7, 12]: 0.5 mg/L (≈ 0.668 µM)
- MIC [7, 13]: 16 mg/L (≈ 21.4 µM)
- MIC [8, 12]: 1 mg/L (≈ 1.34 µM)
- MIC [8, 13]: 2 mg/L (≈ 2.67 µM)
- MIC [8, 14]: 8 mg/L (≈ 10.7 µM)
- MIC [9, 12]: 4 mg/L (≈ 5.35 µM)
- MIC [9, 13]: 8 mg/L (≈ 10.7 µM)
- MIC [9, 14]: 16 mg/L (≈ 21.4 µM)
- MIC [10, 12]: 0.5 mg/L (≈ 0.668 µM)
- MIC [10, 13]: 2 mg/L (≈ 2.67 µM)
- MIC [10, 14]: 32 mg/L (≈ 42.8 µM)
- MIC [11, 12]: 1020 mg/L (≈ 1370 µM)
- MIC [11, 13]: 1020 mg/L (≈ 1370 µM)
- MIC [11, 14]: 1020 mg/L (≈ 1370 µM)
SMILES: CC[C@H]1OC(=O)[C@H](C)[C@@H](O[C@H]2C[C@@](C)(OC)[C@@H](O)[C@H](C)O2)[C@H](C)[C@@H](O[C@@H]2O[C@H](C)C[C@H](N(C)C)[C@H]2O)[C@](C)(OC)C[C@@H](C)C(=O)[C@H](C)[C@@H](O)[C@]1(C)O [CLA, Clarithromycin]
- DST profile, interpretation, Day 3 ([1]; day 3, CLSI interpretation): S
- DST profile, interpretation, Day 5 ([1]; day 5, CLSI interpretation): S
- DST profile, interpretation, Day 14 ([1]; day 14, CLSI interpretation): S
- DST profile, interpretation, Day 3 ([2]; day 3, CLSI interpretation): R
- DST profile, interpretation, Day 5 ([2]; day 5, CLSI interpretation): R
- DST profile, interpretation, Day 14 ([2]; day 14, CLSI interpretation): R
- DST profile, interpretation, Day 3 ([3]; day 3, CLSI interpretation): S
- DST profile, interpretation, Day 5 ([3]; day 5, CLSI interpretation): R
- DST profile, interpretation, Day 14 ([3]; day 14, CLSI interpretation): R
- DST profile, interpretation, Day 3 ([4]; day 3, CLSI interpretation): R
- DST profile, interpretation, Day 5 ([4]; day 5, CLSI interpretation): R
- DST profile, interpretation, Day 14 ([4]; day 14, CLSI interpretation): R
- DST profile, interpretation, Day 3 ([5]; day 3, CLSI interpretation): S
- DST profile, interpretation, Day 5 ([5]; day 5, CLSI interpretation): R
- DST profile, interpretation, Day 14 ([5]; day 14, CLSI interpretation): R
- DST profile, interpretation, Day 3 ([6]; day 3, CLSI interpretation): R
- DST profile, interpretation, Day 5 ([6]; day 5, CLSI interpretation): R
- DST profile, interpretation, Day 14 ([6]; day 14, CLSI interpretation): R
- DST profile, interpretation, Day 3 ([7]; day 3, CLSI interpretation): S
- DST profile, interpretation, Day 5 ([7]; day 5, CLSI interpretation): R
- DST profile, interpretation, Day 14 ([7]; day 14, CLSI interpretation): R
- DST profile, interpretation, Day 3 ([8]; day 3, CLSI interpretation): S
- DST profile, interpretation, Day 5 ([8]; day 5, CLSI interpretation): S
- DST profile, interpretation, Day 14 ([8]; day 14, CLSI interpretation): R
- DST profile, interpretation, Day 3 ([9]; day 3, CLSI interpretation): I
- DST profile, interpretation, Day 5 ([9]; day 5, CLSI interpretation): R
- DST profile, interpretation, Day 14 ([9]; day 14, CLSI interpretation): R
- DST profile, interpretation, Day 3 ([10]; day 3, CLSI interpretation): S
- DST profile, interpretation, Day 5 ([10]; day 5, CLSI interpretation): S
- DST profile, interpretation, Day 14 ([10]; day 14, CLSI interpretation): R
- DST profile, interpretation, Day 3 ([11]; day 3, CLSI interpretation): R
- DST profile, interpretation, Day 5 ([11]; day 5, CLSI interpretation): R
- DST profile, interpretation, Day 14 ([11]; day 14, CLSI interpretation): R

SMILES: CC[C@H](C)[C@H](NC(=O)[C@H](CCCCN)NC(=O)[C@H](CCCNC(=N)N)NC(=O)CNC(=O)[C@H](CC(C)C)NC(=O)[C@H](CO)NC(=O)[C@H](CCCNC(=N)N)NC(=O)[C@H](CC(C)C)NC(=O)CNC(=O)CN)C(=O)N[C@@H](CC(C)C)C(=O)N[C@@H](CCCNC(=N)N)C(=O)N[C@@H](C)C(=O)N[C@@H](Cc1c[nH]c2ccccc12)C(=O)N[C@@H](CCCCN)C(=O)N[C@@H](CCCCN)C(=O)N[C@@H](Cc1ccc(O)cc1)C(=O)O [S61] (H-GGLRSLGRKILRAWKKY-OH)
- MIC after 3 days, MAB01 and MAB03: < 50 mg/L
